biological target: T1, HIF-PH2 (EGLN1) (Homo sapiens, UniProt Q9GZT9); assay: HIF-PH assay (14CO2 capture, peptide-dependent turnover); type: biochemical; settings: Concentration 22 μM
T1 construct: made in house; host or cells: insect Hi5 cells
Description: Ketoglutaric acid α-[1-^14C]-sodium salt, alpha-ketoglutaric acid sodium salt, and HPLC purified peptide may be obtained from commercial sources, e.g., Perkin-Elmer (Wellesley Mass.), Sigma-Aldrich, and SynPep Corp. (Dublin Calif.), respectively. Peptides for use in the assay may be fragments of HIFα as described above or as disclosed in International Publication WO 2005/118836, incorporated by reference herein. HIF-PH, e.g., HIF-PH2 (EGLN1), can be expressed in, e.g., insect Hi5 cells, and partially purified, e.g., through a SP ion exchange chromatography column. Enzyme activity is determined by capturing ^14CO2 using an assay described by Kivirikko and Myllyla (1982, Methods Enzymol. 82:245-304). Assay reactions contain 50 mM HEPES (pH 7.4), 100 μM α-ketoglutaric acid sodium salt, 0.30 μCi/mL ketoglutaric acid α-[1-^14C]-sodium salt, 40 μM FeSO4, 1 mM ascorbate, 1541.8 units/mL Catalase, with or without 50 μM peptide substrate and various concentrations of compound of the invention. Reactions are initiated by addition of HIF-PH enzyme.
The peptide-dependent percent turnover is calculated by subtracting percent turnover in the absence of peptide from percent turnover in the presence of substrate peptide. Percent inhibition and IC50 are calculated using peptide-dependent percent turnover at given inhibitor concentrations. Calculation of IC50 values for each inhibitor is conducted using GraFit software (Erithacus Software Ltd., Surrey UK).
Representative compounds of the invention were analyzed using the HIF-PH assay described above. Table 1 presents enzyme inhibition data for exemplary compounds against HIF-PH2, a representative HIF prolyl hydroxylase. By inhibiting HIF prolyl hydroxylase, compounds of the invention stabilize HIFα, which then combines with HIFβ to form an active transcription factor that increases expression of various genes involved in numerous beneficial cellular processes.

T1 sequence (Q9GZT9 whole entry, species assumed): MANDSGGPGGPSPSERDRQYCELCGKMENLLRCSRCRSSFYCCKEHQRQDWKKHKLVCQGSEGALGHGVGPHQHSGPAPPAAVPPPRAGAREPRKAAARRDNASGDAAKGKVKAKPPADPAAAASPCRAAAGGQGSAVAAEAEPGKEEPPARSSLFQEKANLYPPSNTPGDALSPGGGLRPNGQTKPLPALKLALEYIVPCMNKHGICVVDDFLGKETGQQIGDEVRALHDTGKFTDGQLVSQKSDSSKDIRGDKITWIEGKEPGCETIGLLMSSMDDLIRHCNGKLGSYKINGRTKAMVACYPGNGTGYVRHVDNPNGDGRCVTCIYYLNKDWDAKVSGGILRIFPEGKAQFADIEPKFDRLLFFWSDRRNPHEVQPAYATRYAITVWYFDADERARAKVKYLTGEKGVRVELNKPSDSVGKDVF

inhibition at 22 µM | SMILES
99% | O=C(O)CNC(=O)c1c(O)c2c(Cl)c(Cl)c(Cl)n2n(Cc2ccccc2)c1=O [Example 2, [(1-Benzyl-5,6,7-trichloro-4-hydroxy-2-oxo-1,2-dihydro-pyrrolo[1,2-b]pyridazine-3-carbonyl)-amino]-acetic acid]

same assay, conditions: Concentration 50 μM

inhibition at 50 µM | SMILES
91% | C[C@H](NC(=O)c1c(O)c2cc(Cl)cn2n(Cc2ccccn2)c1=O)C(=O)O [Example 41, 2-(S)-[(6-Chloro-4-hydroxy-2-oxo-1-pyridin-2-ylmethyl-1,2-dihydro-pyrrolo[1,2-b]pyridazine-3-carbonyl)-amino]-propionic acid]
95% | O=C(O)CNC(=O)c1c(O)c2cc(Cl)cn2n(Cc2ccccn2)c1=O [Example 40, [(6-Chloro-4-hydroxy-2-oxo-1-pyridin-2-ylmethyl-1,2-dihydro-pyrrolo[1,2-b]pyridazine-3-carbonyl)-amino]-acetic acid]
95% | O=C(O)CNC(=O)c1c(O)c2cc(Cl)c(Cl)n2n(Cc2ccc(F)cc2)c1=O [Example 42, {[6,7-Dichloro-1-(4-fluoro-benzyl)-4-hydroxy-2-oxo-1,2-dihydro-pyrrolo[1,2-b]pyridazine-3-carbonyl]-amino}-acetic acid]

Further lines, the compound ahead of its results:

SMILES | inhibition at 50 µM
O=C(O)CNC(=O)c1c(O)c2cc3cc(F)ccc3n2n(Cc2ccc(F)cc2)c1=O [Example 21, {[7-Fluoro-4-(4-fluoro-benzyl)-1-hydroxy-3-oxo-3,4-dihydro-4,4a-diaza-fluorene-2-carbonyl]-amino}-acetic acid] | 99%
CCCCCCn1c(=O)c(C(=O)NCC(=O)O)c(O)c2cccn21 [Example 20, [(1-Hexyl-4-hydroxy-2-oxo-1,2-dihydro-pyrrolo[1,2-b]pyridazine-3-carbonyl)-amino]-acetic acid] | 97%

same assay, conditions: Concentration 67 μM

inhibition at 67 µM | SMILES
89% | C[C@H](NC(=O)c1c(O)c2cc3ccc(C(F)(F)F)cc3n2n(Cc2ccc(F)cc2)c1=O)C(=O)O [Example 44, 2-(S)-{[4-(4-Fluoro-benzyl)-1-hydroxy-3-oxo-6-trifluoromethyl-3,4-dihydro-4,4a-diaza-fluorene-2-carbonyl]-amino}-propionic acid]
86% | CC[C@H](NC(=O)c1c(O)c2cc(Cl)cn2n(Cc2ccc(F)cc2)c1=O)C(=O)O [Example 34, 2-(S)-{[6-Chloro-1-(4-fluoro-benzyl)-4-hydroxy-2-oxo-1,2-dihydro-pyrrolo[1,2-b]pyridazine-3-carbonyl]-amino}-butyric acid]
98% | O=C(O)CNC(=O)c1c(O)c2cc(Cl)cn2n(Cc2ccc(F)cc2)c1=O [Example 26, {[6-Chloro-4-hydroxy-2-oxo-1-(4-fluoro-benzyl)-1,2-dihydro-pyrrolo[1,2-b]pyridazine-3-carbonyl]-amino}-acetic acid]
94% | CC[C@H](NC(=O)c1c(O)c2cc(Cl)cn2n(Cc2ccc(Cl)cc2)c1=O)C(=O)O [Example 30, 2-(S)-{[6-Chloro-1-(4-chloro-benzyl)-4-hydroxy-2-oxo-1,2-dihydro-pyrrolo[1,2-b]pyridazine-3-carbonyl]-amino}-butyric acid]
100% | COc1ccc(Cn2c(=O)c(C(=O)NCC(=O)O)c(O)c3cc(Cl)cn32)cc1 [Example 31, {[6-Chloro-1-(4-methoxy-benzyl)-4-hydroxy-2-oxo-1,2-dihydro-pyrrolo[1,2-b]pyridazine-3-carbonyl]-amino}-acetic acid]
100% | C[C@H](NC(=O)c1c(O)c2cc(Cl)cn2n(Cc2ccc(Cl)cc2)c1=O)C(=O)O [Example 29, 2-(S)-{[6-Chloro-1-(4-chloro-benzyl)-4-hydroxy-2-oxo-1,2-dihydro-pyrrolo[1,2-b]pyridazine-3-carbonyl]-amino}-propionic acid]
97% | COc1ccc(Cn2c(=O)c(C(=O)N[C@@H](C)C(=O)O)c(O)c3cc(Cl)cn32)cc1 [Example 32, 2-(S)-{[6-Chloro-1-(4-methoxy-benzyl)-4-hydroxy-2-oxo-1,2-dihydro-pyrrolo[1,2-b]pyridazine-3-carbonyl]-amino}-propionic acid]
97% | C[C@H](NC(=O)c1c(O)c2cc(Cl)cn2n(Cc2cccnc2)c1=O)C(=O)O [Example 39, 2-(S)-[(6-Chloro-4-hydroxy-2-oxo-1-pyridin-3-ylmethyl-1,2-dihydro-pyrrolo[1,2-b]pyridazine-3-carbonyl)-amino]-propionic acid]
88% | CC[C@H](NC(=O)c1c(O)c2cc(Cl)cn2n(Cc2ccc(OC)cc2)c1=O)C(=O)O [Example 33, 2-(S)-{[6-Chloro-1-(4-methoxy-benzyl)-4-hydroxy-2-oxo-1,2-dihydro-pyrrolo[1,2-b]pyridazine-3-carbonyl]-amino}-butyric acid]

same assay, conditions: Concentration 125 μM

inhibition at 125 µM | SMILES
96% | O=C(O)CNC(=O)c1c(O)c2cccn2n(Cc2ccccc2F)c1=O [Example 5, {[1-(2-Fluoro-benzyl)-4-hydroxy-2-oxo-1,2-dihydro-pyrrolo[1,2-b]pyridazine-3-carbonyl]-amino}-acetic acid]
98% | O=C(O)CNC(=O)c1c(O)c2cccn2n(Cc2cccc(F)c2)c1=O [Example 14, {[1-(3-Fluoro-benzyl)-4-hydroxy-2-oxo-1,2-dihydro-pyrrolo[1,2-b]pyridazine-3-carbonyl]-amino}-acetic acid]
98% | O=C(O)CNC(=O)c1c(O)c2cccn2n(Cc2ccccc2C(F)(F)F)c1=O [Example 16, {[1-(2-Trifluoromethyl-benzyl)-4-hydroxy-2-oxo-1,2-dihydro-pyrrolo[1,2-b]pyridazine-3-carbonyl]-amino}-acetic acid]

same assay, conditions: Concentration 200 μM

inhibition at 200 µM | SMILES
100% | O=C(O)CNC(=O)c1c(O)c2cccn2n(Cc2ccccc2)c1=O [Example 1, [(1-Benzyl-4-hydroxy-2-oxo-1,2-dihydro-pyrrolo[1,2-b]pyridazine-3-carbonyl)-amino]-acetic acid]
100% | O=C(O)CNC(=O)c1c(O)c2cccn2n(Cc2ccc(F)cc2F)c1=O [Example 6, {[1-(2,4-Difluoro-benzyl)-4-hydroxy-2-oxo-1,2-dihydro-pyrrolo[1,2-b]pyridazine-3-carbonyl]-amino}-acetic acid]
100% | O=C(O)CNC(=O)c1c(O)c2cccn2n(Cc2ccc(F)cc2)c1=O [Example 3, {[1-(4-Fluoro-benzyl)-4-hydroxy-2-oxo-1,2-dihydro-pyrrolo[1,2-b]pyridazine-3-carbonyl]-amino}-acetic acid]
100% | O=C(O)CNC(=O)c1c(O)c2cccn2n(Cc2ccccc2Cl)c1=O [Example 7, {[1-(2-Chloro-benzyl)-4-hydroxy-2-oxo-1,2-dihydro-pyrrolo[1,2-b]pyridazine-3-carbonyl]-amino}-acetic acid]
100% | O=C(O)CNC(=O)c1c(O)c2cccn2n(Cc2ccc(C(F)(F)F)cc2)c1=O [Example 10, {[1-(4-Trifluoromethyl-benzyl)-4-hydroxy-2-oxo-1,2-dihydro-pyrrolo[1,2-b]pyridazine-3-carbonyl]-amino}-acetic acid]
100% | O=C(O)CNC(=O)c1c(O)c2cccn2n(Cc2cccc(Cl)c2)c1=O [Example 8, {[1-(3-Chloro-benzyl)-4-hydroxy-2-oxo-1,2-dihydro-pyrrolo[1,2-b]pyridazine-3-carbonyl]-amino}-acetic acid]

— patent publication US8217043B2, “Compounds and methods for their use” (Fibrogen, Inc., priority 2008, dated 2012)
